Data reported in patent US8883745B2, “C—glycolipids with enhanced Th-1 profile” (New York University, priority 2006, dated 2014).

Assays:
Format in all cases: in vivo
IFN-γ = IFN-γ levels in sera upon i.v. glycolipid administration to BALB/c mice (ELISA); parameters: IFN-γ levels, test 1 / IFN-γ levels, test 2 / IFN-γ levels, average / IFN-γ levels, Total: unit not given here; conditions: BALB/c; for IFN-γ/IL-4 (BALB/c): ratio calculated from Tables 1-6; for IFN-γ levels, average / IFN-γ levels, test 1 / IFN-γ levels, test 2 / IFN-γ levels, Total: serum; for IFN-γ levels, Total: total over hours 0-72
Description: (§1) Five- to six-week-old female C57BL/6 mice and BALB/c mice were purchased from Taconic. Each glycolipid was stored at 1 mg/ml in 100% DMSO. Mice were injected intravenously with 1 μg of each glyocolipid diluted in 200 μL sterile phosphate buffered saline (PBS). At indicated time points, sera were collected from each animal, and concentrations of IFN-γ, IL-4, and IL-12 in the sera were evaluated by enzyme-linked immunosorbent assay (ELISA). Serum concentrations of IFN-γ, IL-4, and IL-12 were evaluated using an ELISA kit (eBioscience, San Diego, Calif.). Briefly, 96 well flat-bottom ELISA plates (NUNC) were coated with capture antibody according to the manufacture's recommendation and incubated overnight at 4° C. The plates were washed with PBS+0.05% Tween 20 (PBS-T), then incubated with manufacturer provided blocking solution for 1 hr at room temperature to block non-specific binding sites. After washing with PBS-T, sera diluted 1:10 was added to the wells and incubated for 2 hrs at room temperature. Plates were then incubated at room temperature for 1 hr with biotintylated detection antibody, washed, incubated with avidin conjugated to horse radish peroxidase (HRP) for 30 min at room temperature, washed, and finally incubated with tetramethylbenzidine substrate solution in the dark for 10 minutes at room temperature. The antibodies, avidin-HRP, and substrate solution were all diluted according to the manufacture's recommendation. Reactions were stopped with 2.0N sulfuric acid and the cytokine concentration in each well was determined by comparing the absorbance at 450 nm in each well to known standards. The levels of Th1- and Th2-type cytokines were determined in two different genetic backgrounds, i.e., in C57BL/6 mice and BALB/c mice. The following compounds were administered: A=compound (A-1 trans-conformer), B=compound (A-2), C=compound (A-3), D=compound (A-4), E=compound (A-5), Z=control (PBS alone), CRONY=α-C-GalCer, KRN=α-GalCer, GCK109 (A-1 trans-conformer), GCK151 (A-1 cis-conformer), GCK152 (A-7). The levels of cytokines were measured at 0, 2, 6, 12, 24, 48, and 72 hours after the compound administration. The levels of Th1-type cytokines IFN-γ and IL-12 are summarized in FIGS. 2A-C and 3A-C, respectively. Table 7 provides IFN-γ/IL-4 and IL-12/IL-4 ratios for various compounds, which can be used as indicators of their ability to selectively stimulate Th1-type immune responses.

IL-12 [1] = experiment: IL-12 levels in sera upon i.v. glycolipid administration to BALB/c mice (ELISA); parameters: IL-12 levels, test 1 / IL-12 levels, test 2 / IL-12 levels, average / IL-12 levels, Total: unit not given here; conditions: for IL-12/IL-4 (BALB/c): ratio calculated from Tables 1-6; for IL-12 levels, average / IL-12 levels, test 1 / IL-12 levels, test 2 / IL-12 levels, Total: serum; for IL-12 levels, Total: total over hours 0-72
Description: as §1

IL-12 [2] = experiment: IL-12 levels in sera upon i.v. glycolipid administration to C57BL/6 mice (ELISA); parameters: IL-12 levels, test 1 / IL-12 levels, test 2 / IL-12 levels, average / IL-12 levels, Total: unit not given here; conditions: for IL-12/IL-4 (B6): C57BL/6, ratio calculated from Tables 1-6; for IL-12 levels, average / IL-12 levels, test 1 / IL-12 levels, test 2 / IL-12 levels, Total: C57BL/6, serum; for IL-12 levels, Total: total over hours 0-72
Description: as §1

IL-4 = IL-4 levels in sera upon i.v. glycolipid administration to BALB/c mice (ELISA); parameters: unit not given here; conditions: for IL-4 level, Total: total over hours 0-72
Description: as §1

## CCCCCCCCCCCCCCCCC/C=C/CCCCCCCCC(=O)N[C@@H](CC[C@H]1O[C@H](CO)[C@H](O)[C@H](O)[C@H]1O)[C@H](O)[C@H](O)CCCCCCCCCCCCCC [A-3]
IFN-γ
  IFN-γ/IL-4 (BALB/c): 40
  IFN-γ levels, Total: 21287
IFN-γ; hour 0
  IFN-γ levels, average: 27
  IFN-γ levels, test 1: 27
  IFN-γ levels, test 2: 27
IFN-γ; hour 2
  IFN-γ levels, average: 163
  IFN-γ levels, test 1: 137
  IFN-γ levels, test 2: 189
IFN-γ; hour 6
  IFN-γ levels, average: 1172
  IFN-γ levels, test 1: 1072
  IFN-γ levels, test 2: 1272
IFN-γ; hour 12
  IFN-γ levels, average: 3938.5
  IFN-γ levels, test 1: 3891
  IFN-γ levels, test 2: 3986
IFN-γ; hour 24
  IFN-γ levels, average: 15700
  IFN-γ levels, test 1: 14100
  IFN-γ levels, test 2: 17300
IFN-γ; hour 48
  IFN-γ levels, average: 224.5
  IFN-γ levels, test 1: 231
  IFN-γ levels, test 2: 218
IFN-γ; hour 72
  IFN-γ levels, average: 61
  IFN-γ levels, test 1: 62
  IFN-γ levels, test 2: 60
IL-12 [1]
  IL-12/IL-4 (BALB/c): 9
  IL-12 levels, Total: 4878
IL-12 [1]; hour 0
  IL-12 levels, average: 5
  IL-12 levels, test 1: 5
  IL-12 levels, test 2: 5
IL-12 [1]; hour 2
  IL-12 levels, average: 240
  IL-12 levels, test 1: 362
  IL-12 levels, test 2: 118
IL-12 [1]; hour 6
  IL-12 levels, average: 1384.5
  IL-12 levels, test 1: 1356
  IL-12 levels, test 2: 1413
IL-12 [1]; hour 12
  IL-12 levels, average: 3010.5
  IL-12 levels, test 1: 3256
  IL-12 levels, test 2: 2765
IL-12 [1]; hour 24
  IL-12 levels, average: 161
  IL-12 levels, test 1: 134
  IL-12 levels, test 2: 188
IL-12 [1]; hour 48
  IL-12 levels, average: 0
  IL-12 levels, test 1: 0
  IL-12 levels, test 2: 0
IL-12 [1]; hour 72
  IL-12 levels, average: 75.5
  IL-12 levels, test 1: 0
  IL-12 levels, test 2: 151
IL-12 [2]
  IL-12/IL-4 (B6): 1.5
  IL-12 levels, Total: 1400
IL-12 [2]; hour 0
  IL-12 levels, average: 5
  IL-12 levels, test 1: 5
  IL-12 levels, test 2: 5
IL-12 [2]; hour 2
  IL-12 levels, average: 75
  IL-12 levels, test 1: 79
  IL-12 levels, test 2: 71
IL-12 [2]; hour 6
  IL-12 levels, average: 442
  IL-12 levels, test 1: 451
  IL-12 levels, test 2: 433
IL-12 [2]; hour 12
  IL-12 levels, average: 608
  IL-12 levels, test 1: 449
  IL-12 levels, test 2: 767
IL-12 [2]; hour 24
  IL-12 levels, average: 89.5
  IL-12 levels, test 1: 77
  IL-12 levels, test 2: 102
IL-12 [2]; hour 48
  IL-12 levels, average: 99
  IL-12 levels, test 1: 67
  IL-12 levels, test 2: 131
IL-12 [2]; hour 72
  IL-12 levels, average: 80.5
  IL-12 levels, test 1: 53
  IL-12 levels, test 2: 108
IL-4; hour 0
  IL-4 level, average: 27
  IL-4 level, test 1: 27
  IL-4 level, test 2: 27
IL-4; hour 2
  IL-4 level, average: 307.5
  IL-4 level, test 1: 273
  IL-4 level, test 2: 342
IL-4; hour 6
  IL-4 level, average: 54.5
  IL-4 level, test 1: 56
  IL-4 level, test 2: 53
IL-4; hour 12
  IL-4 level, average: 48
  IL-4 level, test 1: 44
  IL-4 level, test 2: 52
IL-4; hour 24
  IL-4 level, average: 44
  IL-4 level, test 1: 44
  IL-4 level, test 2: 44
IL-4; hour 48
  IL-4 level, average: 43
  IL-4 level, test 1: 48
  IL-4 level, test 2: 38
IL-4; hour 72
  IL-4 level, average: 12.23
  IL-4 level, test 1: 12.23
  IL-4 level, test 2: 12.23
IL-4
  IL-4 level, Total: 538

## CCCCCCCCCCCCCC[C@@H](O)[C@@H](O)[C@H](CC[C@H]1O[C@H](CO)[C@H](O)[C@H](O)[C@H]1O)NC(=O)CCCCCCCCCCCCCCCCCCCOCCCCCC [A-4]
IFN-γ
  IFN-γ/IL-4 (BALB/c): 44
  IFN-γ levels, Total: 22676
IFN-γ; hour 0
  IFN-γ levels, average: 27
  IFN-γ levels, test 1: 27
  IFN-γ levels, test 2: 27
IFN-γ; hour 2
  IFN-γ levels, average: 142.5
  IFN-γ levels, test 1: 140
  IFN-γ levels, test 2: 145
IFN-γ; hour 6
  IFN-γ levels, average: 1742
  IFN-γ levels, test 1: 1778
  IFN-γ levels, test 2: 1706
IFN-γ; hour 12
  IFN-γ levels, average: 6513.5
  IFN-γ levels, test 1: 4988
  IFN-γ levels, test 2: 8039
IFN-γ; hour 24
  IFN-γ levels, average: 14100
  IFN-γ levels, test 1: 14000
  IFN-γ levels, test 2: 14200
IFN-γ; hour 48
  IFN-γ levels, average: 929.5
  IFN-γ levels, test 1: 752
  IFN-γ levels, test 2: 1107
IFN-γ; hour 72
  IFN-γ levels, average: 56.5
  IFN-γ levels, test 1: 47
  IFN-γ levels, test 2: 66
IL-12 [1]
  IL-12/IL-4 (BALB/c): 12
  IL-12 levels, Total: 5926
IL-12 [1]; hour 0
  IL-12 levels, average: 5
  IL-12 levels, test 1: 5
  IL-12 levels, test 2: 5
IL-12 [1]; hour 2
  IL-12 levels, average: 54.5
  IL-12 levels, test 1: 57
  IL-12 levels, test 2: 52
IL-12 [1]; hour 6
  IL-12 levels, average: 914.5
  IL-12 levels, test 1: 730
  IL-12 levels, test 2: 1099
IL-12 [1]; hour 12
  IL-12 levels, average: 4463
  IL-12 levels, test 1: 3799
  IL-12 levels, test 2: 5127
IL-12 [1]; hour 24
  IL-12 levels, average: 333.5
  IL-12 levels, test 1: 396
  IL-12 levels, test 2: 271
IL-12 [1]; hour 48
  IL-12 levels, average: 89
  IL-12 levels, test 1: 58
  IL-12 levels, test 2: 120
IL-12 [1]; hour 72
  IL-12 levels, average: 64.5
  IL-12 levels, test 1: 78
  IL-12 levels, test 2: 51
IL-12 [2]
  IL-12/IL-4 (B6): 1.3
  IL-12 levels, Total: 1274
IL-12 [2]; hour 0
  IL-12 levels, average: 5
  IL-12 levels, test 1: 5
  IL-12 levels, test 2: 5
IL-12 [2]; hour 2
  IL-12 levels, average: 458.5
  IL-12 levels, test 1: 490
  IL-12 levels, test 2: 427
IL-12 [2]; hour 6
  IL-12 levels, average: 685.5
  IL-12 levels, test 1: 740
  IL-12 levels, test 2: 631
IL-12 [2]; hour 12
  IL-12 levels, average: 124
  IL-12 levels, test 1: 18
  IL-12 levels, test 2: 230
IL-12 [2]; hour 24
  IL-12 levels, average: 0
  IL-12 levels, test 1: 0
  IL-12 levels, test 2: 0
IL-12 [2]; hour 48
  IL-12 levels, average: 0
  IL-12 levels, test 1: 0
  IL-12 levels, test 2: 0
IL-12 [2]; hour 72
  IL-12 levels, average: 0
  IL-12 levels, test 1: 0
  IL-12 levels, test 2: 0
IL-4; hour 0
  IL-4 level, average: 27
  IL-4 level, test 1: 27
  IL-4 level, test 2: 27
IL-4; hour 2
  IL-4 level, average: 207
  IL-4 level, test 1: 200
  IL-4 level, test 2: 214
IL-4; hour 6
  IL-4 level, average: 79.5
  IL-4 level, test 1: 85
  IL-4 level, test 2: 74
IL-4; hour 12
  IL-4 level, average: 58
  IL-4 level, test 1: 64
  IL-4 level, test 2: 52
IL-4; hour 24
  IL-4 level, average: 67.5
  IL-4 level, test 1: 50
  IL-4 level, test 2: 85
IL-4; hour 48
  IL-4 level, average: 59
  IL-4 level, test 1: 52
  IL-4 level, test 2: 66
IL-4; hour 72
  IL-4 level, average: 12
  IL-4 level, test 1: 12
  IL-4 level, test 2: 12
IL-4
  IL-4 level, Total: 511
